In paper PMC8008425, “Shedding X-ray Light on the Role of Magnesium in the Activity of Mycobacterium tuberculosis Salicylate Synthase (MbtI) for Drug Design” (Journal of Medicinal Chemistry, 2020):
In brackets after ≈: the same amount, converted by molar mass. Several values for one entry are separate records, joined by “and”; a condition that tells them apart may be missing. Equal values may be shown once. Read-outs that look alike come from different tables or passages of the source.

Tests used:
[1] = biological target: T1, recombinant MbtI (Mycobacterium tuberculosis, UniProt P9WFX1); experiment: MbtI enzymatic (fluorimetric) inhibition assay; assay type: biochemical; conditions: for remaining activity at 100 µM: residual enzymatic activity at 100 μM ligand concentration, 50 μM chorismic acid
[2] = biological target: T1, recombinant MbtI; conditions: cited from earlier work
[3] = system: M. bovis BCG; assay type: cell-based, Mycobacterium bovis; conditions: M. bovis BCG cultures grown at different concentrations of compound, chelated Sauton's medium
[4] = system: M. bovis BCG; experiment: microbe, parasite or virus in culture; assay type: cell-based; conditions: Mycobacterium tuberculosis variant bovis BCG
[5] = system: M. tuberculosis H37Rv; experiment: MIC99 determination on Middlebrook 7H11 agar solid medium; assay type: cell-based; conditions: Mycobacterium tuberculosis
[6] = in vitro; conditions: human
[7] = system: M. tuberculosis H37Rv; parameters: method as in PMID 29940465, PMID 30889995; conditions: Mtb cultures; cited from earlier work
[8] = standard assay, 5 mM MgCl2, read-out: IC50

T1 sequence (P9WFX1 whole entry): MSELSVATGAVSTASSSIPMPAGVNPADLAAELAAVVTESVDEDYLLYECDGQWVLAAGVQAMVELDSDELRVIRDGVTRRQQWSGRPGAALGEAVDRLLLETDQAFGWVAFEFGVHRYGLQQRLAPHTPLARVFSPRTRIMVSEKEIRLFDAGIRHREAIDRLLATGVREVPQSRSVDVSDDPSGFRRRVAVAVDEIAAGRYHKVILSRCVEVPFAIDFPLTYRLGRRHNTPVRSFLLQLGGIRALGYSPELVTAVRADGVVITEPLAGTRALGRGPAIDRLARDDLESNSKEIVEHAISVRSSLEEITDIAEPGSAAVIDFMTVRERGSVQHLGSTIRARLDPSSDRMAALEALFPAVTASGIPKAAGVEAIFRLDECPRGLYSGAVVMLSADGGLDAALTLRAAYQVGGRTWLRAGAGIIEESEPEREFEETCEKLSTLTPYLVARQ

N#Cc1cccc(-c2ccc(C(N)=O)o2)c1 [Compound 11, 5-(3-Cyanophenyl)furan-2-carboxamide]
melting point: 202 °C | IC50 [1, 8]: 17.3 ± 1.9 µM

O=C(O)c1ccc(-c2cccc([N+](=O)[O-])c2)o1 [NO2, 5-(3-nitrophenyl)furan-2-carboxylic acid]
inhibitory activity ([2]; at a concentration of 100 μM): ~50%

NC(=O)c1cccc(-c2ccc(C(=O)O)o2)c1 [Compound 6, 5-(3-Carbamoylphenyl)furan-2-carboxylic Acid]
remaining activity at 100 µM ([1]; 5 mM MgCl2): 20.9 ± 4.3% | IC50 [1, 8]: 31 µM and 31.4 µM

N#Cc1cccc(-c2ccc(C(=O)O)o2)c1 [Compound 10, 5-(3-Cyanophenyl)furan-2-carboxylic Acid]
siderophore concentration (Universal CAS assay and quantification of mycobactins) [3]: siderophore concentration decreased at higher concentrations of the compound | IC50 ([1]; 0.1 mg/mL BSA, PAINS control, read-out: IC50 in the presence of BSA): 6.1 ± 0.9 µM | IC50 ([1]; 1 mM MgCl2, Figure 5B, x-axis [10] (μM), read-out: IC50 at 1 mM MgCl2): 9.8 ± 1.3 µM | IC50 ([1]; 5 mM MgCl2, Figure 5B, x-axis [10] (μM), read-out: IC50 at 5 mM MgCl2): 11.4 ± 2 µM | IC50 ([1]; 0.01% (v/v) Triton X-100, PAINS control, read-out: IC50 in the presence of Triton X-100): 5.8 ± 1.2 µM | IC50 ([1]; 25 mM MgCl2, Figure 5B, x-axis [10] (μM), read-out: IC50 at 25 mM MgCl2): 14.2 ± 1.1 µM | IC50 ([1]; 100 mM DTT, PAINS control, read-out: IC50 in the presence of DTT): 7.2 ± 1.1 µM | IC50 ([1]; IC50, standard assay, 5 mM MgCl2): 6.3 ± 0.9 µM | remaining activity at 100 µM ([1]; 5 mM MgCl2): 3.1 ± 1% | IC50 [1, 8]: ~6 µM | mode of inhibition (kinetic analysis) ([1]; steady-state kinetics toward chorismic acid): competitive inhibitor | Ki ([1]; steady-state kinetics toward chorismic acid, competitive inhibition): 4.2 µM and 4 µM | MIC99 [4]: 250 µM (≈ 53.3 µg/mL) | MIC99 [5]: 250 µM (≈ 53.3 µg/mL) | IC50 [6]: > 100 µM

O=C(O)c1ccc(-c2ccc([N+](=O)[O-])cc2)o1 [I]
IC50 ([2]; previous leads): 7.6 ± 1.6 µM | MIC99 [7]: 156 µM (≈ 36.4 µg/mL)

Cc1cccc(-c2ccc(C(=O)O)o2)c1 [Compound 4, 5-(m-Tolyl)furan-2-carboxylic Acid]
melting point: 147 °C | remaining activity at 100 µM ([1]; 5 mM MgCl2): 104 ± 4.8%

O=C(O)c1ccc(-c2ccc(C(F)(F)F)cc2C(F)(F)F)o1 [II]
MIC99 [7]: 250 µM (≈ 81 µg/mL)

Nc1cccc(-c2ccc(C(=O)O)o2)c1 [Compound 5, 5-(3-Aminophenyl)furan-2-carboxylic Acid]
melting point: 225 °C (dec.) | remaining activity at 100 µM ([1]; 5 mM MgCl2): 65.8 ± 9.6%

O=C(O)c1ccc(-c2cccc(O)c2)o1 [Compound 3, 5-(3-Hydroxyphenyl)furan-2-carboxylic Acid]
melting point: 170 °C | remaining activity at 100 µM ([1]; 5 mM MgCl2): 70.4 ± 21.8%

O=C(O)c1cccc(-c2ccc(C(=O)O)o2)c1 [Compound 9, 5-(3-Carboxyphenyl)furan-2-carboxylic Acid]
remaining activity at 100 µM ([1]; 5 mM MgCl2): 27.2 ± 4.5%

CNC(=O)c1cccc(-c2ccc(C(=O)O)o2)c1 [Compound 7, 5-(3-(Methylcarbamoyl)phenyl)furan-2-carboxylic Acid]
melting point: 159 °C | remaining activity at 100 µM ([1]; 5 mM MgCl2): 84 ± 9.1%

NS(=O)(=O)c1cccc(-c2ccc(C(=O)O)o2)c1 [Compound 8, 5-(3-Sulfamoylphenyl)furan-2-carboxylic Acid]
remaining activity at 100 µM ([1]; 5 mM MgCl2): 28.6 ± 6.8%

O=C(O)c1ccc(-c2cccc(C(F)(F)F)c2)o1 [Compound 1]
remaining activity at 100 µM ([1]; 5 mM MgCl2): 42 ± 6.3%

O=C(O)c1ccc(-c2cccc(Cl)c2)o1 [Compound 2, 5-(3-Chlorophenyl)furan-2-carboxylic Acid]
melting point: 187 °C (dec.) | remaining activity at 100 µM ([1]; 5 mM MgCl2): 102 ± 17.8%
